In the NIST ThermoML archive (doi:10.1016/j.fluid.2015.10.026) one finds speed of sound data, which are given here for one compound.

For orientation: speed of sound means how fast a sound wave travels through the sample.

The conditions of the data set: Liquid, Brillouin light scattering.

± gives the expanded uncertainty stated by the source.

For `Cc1ccccc1` [toluene], the speed of sound (323.15 K) was determined as 1200.8 ± 6 m/s; the speed of sound (373.15 K) turned out to be 1000 ± 5 m/s; the speed of sound (423.15 K) is recorded as 806 ± 5.2 m/s; the speed of sound (473.15 K) is 616.2 ± 3.3 m/s; the speed of sound (523.15 K) is 425.5 ± 2.4 m/s.
